# “Also recorded” adds a separate entry of the source. Residues, ends and D or L forms follow the SMILES beside them. *: point of attachment. Cbz = O=C(OCc1ccccc1)*; CH2F = FC*
# What was measured:
# [1] = test system: mouse bone marrow derived dendritic cells (BMDC); experiment: IL-1β release / inflammasome activation in infected BMDC; assay type: cell-based; conditions: MOI=20, 6 hours; for IL-1β production/release in S. aureus infected BMDC: MCC950 10 μM, Cytochalasin D 5 μM, ZM241385 10 μM
# Experimental: (§1) Bone marrow cells extracted from femur of 8-12 weeks old female BALB/c mice were culture in RPMI-1640 medium supplemented with L-glutamine, 10% heat inactivated-FBS, 1×penicillin/streptomycin, 10 mM HEPES, 50 μM-β mercaptoethanol, 20 ng/ml mGM-CSF (PeproTech) for up to 7 days differentiation.
# One day before bacterial infection experiments, S. aureus strains were inoculated and cultured with BHI broth for overnight. Next day, overnight culture of bacteria strains were sub-cultured in fresh BHI broth at a dilution of 1:100 and grown at 37° C. Following 3 hours of culturing, S. aureus were harvested and washed for two to three times in cold PBS by centrifugation. Finally, S. aureus strains were diluted with desired volume of PBS, yielding an OD600 of 0.5 (1×10^8 CFU/ml), and further centrifuged and resuspended at desired bacterial concentration. The number of bacteria was determined by serial dilution and colony formation on BHI agar plates. Mammalian cells were plated in 24-well plates at a number of 4×10^5 per well and infected with S. aureus strains in antibiotic free medium at the indicated MOI.
# (§2) Culture supernatants of relevant cells were collected and centrifuged at 13000 rpm for 4 min to get rid of cell debris and bacteria. Levels of LDH in culture supernatants were measured by CytoTox 96 Non-Radioactive Cytotoxicity Assay kit (Promega). Cell viability was measured by the CellTiter Glo Luminescent Cell Viability Assay (Promega). ELISA assay was conducted according manufactures' instructions.
# For detection of cleaved form of caspase-1, cell culture supernatants were precipitated by methanol-chloroform method. Briefly, supernatant was mixed with an equal volume of methanol and 0.25 volumes of chloroform, vortexed and centrifuge for 15 min at 20000 g. The upper phase was discarded and the interphase was mixed with methanol. After centrifugation for 5 min at 20000 g, the pellet was resuspended in 2×SDS-PAGE sample buffer and boiled for 5 min at 100° C. Protein samples were separated by 15% SDS-PAGE gels and were transferred onto PVDF membranes. Total cell lysates lysed by RIPA buffer (50 mM Tris-Cl, pH 7.4, 150 mM NaCl, 1% Triton X-100, 0.1% SDS, 1% sodium deoxycholate and 0.5 mM EDTA) supplemented with 1× protease inhibitor cocktail (Roche) were boiled for 5 min at 100° C. Lysate aliquots were separated by SDS-PAGE gels and transferred onto PVDF membranes. Blots were probed with primary antibody: rabbit anti-caspase-1 (1:1000 dilution, 179515 from Abcam, USA), mouse anti-β actin (1:5000 dilution, A5316 from Sigma). Anti-rabbit or mouse antibodies conjugated to HRP were used as secondary reagents.
# [2] = test system: BALB/c mice; experiment: Th17 response in inhibitor-pretreated mice infected with wild type S. aureus; assay type: in vivo; conditions: splenocytes re-stimulated MOI=5, 4 days
# Experimental: Protocol for harvest and calculation of wild type and variant S. aureus strains was the same as described above. To induce systemic blood infection model of S. aureus in FIG. 1, 200 ul of bacterial suspension (1×10^7 CFU) was administered intravenously into naïve 6-wk-old female BALB/c mice. To establish re-infection model in FIG. 5, mice were intraperitoneally infected with WT S. aureus (USA300), adsA mutant strain or WT S. aureus (USA300)/adsA mutant strain (4×10^7 CFU) for a total of 3 times at 7 days interval. After 14 days convalescent period, mice were re-challenged with lethal dose of WT USA300 S. aureus (4×10^7 CFU) or sublethal dose of WT USA300 S. aureus (2×10^7 CFU). Upon bacterial infection, health conditions of mice were frequently monitored in compliance with humane end points (HEP) form. To measure staphylococcal burden in blood, after 2 h of i.v. infection, mice were anaesthetized by intraperitoneal injection of 80-120 mg ketamine and 3-6 mg xylazine per kilogram of body weight and blood was collected via tail vein. Blood samples were incubated on ice in 0.5% saponin/PBS for lysis of host cells. Later on, serial dilutions were performed on BHI agar plates for colony formation. To enumerate bacteria in tissues, mice were euthanized by CO2 inhalation, organs including lungs, spleens and kidneys were harvested and homogenized in 1% Triton X-100/PBS. Aliquots of homogenates were serially diluted and spread on BHI agar plates for colony formation. For histopathology, kidneys were incubated in 4% paraformaldehyde (PFA) at room temperature for 24 h. Tissues were embedded in paraffin, thin sectioned, stained with hematoxylin-eosin, and examined by microscopy.
# Animals were sacrificed at indicated time points in re-infection model. Spleens were harvested and grinded for cells suspension. After centrifugation, splenocytes were experienced red blood cell lysing, washes and filtering, and single cells suspension was cultured in RPMI-1640 media supplemented with 10% FBS, 100 U/ml penicillin and […]. […]
# [3] = test system: HMDM; experiment: Cell viability assay of infected HMDM; assay type: cell-based, human; conditions: MOI=100, 8 hours, Z-VADFMK 25 μM, VX765 20 μM, NSA 5 μM
# Experimental: Human peripheral blood mononuclear cells (PBMC) were isolated from human buffy coat (provided by Department of Microbiology, The University of Hong Kong, Li Ka Shing Faculty of Medicine) by Ficoll-Paque gradient protocol. In brief, 30 mL of 1:1 PBS diluted buffy coat from healthy donors were layered on Ficoll-Paque Plus (GE Healthcare, Life Sciences) and centrifuged at 450×g for 30 min at room temperature. Separated layers of PBMC were collected and then washed 2 times with RPMI-1640 medium. After washing, the cells were resuspended in 4 mL red blood cell lysing buffer (Biolegend, RBC Lysis Buffer) and incubated for 5 min at room temperature. Following two subsequent washes, the cell pellet was resuspended in RPMI-1640 media supplemented with 10% FBS, 100 U/ml penicillin and 0.1 mg/ml streptomycin for further infection experiments. To differentiate human monocytes-derived macrophages (HMDM), isolated PBMC were seeded on poly-L-lysine coated coverslips in 24 well plate and cultured in RPMI-1640 media supplemented with L-glutamine, 10% FBS, 1×penicillin/streptomycin, 10 mM HEPES, 50 ng/mL hGM-CSF (PeproTech) for up to 7 days differentiation.
# One day before bacterial infection experiments, S. aureus strains were inoculated and cultured with BHI broth for overnight. Next day, overnight culture of bacteria strains were sub-cultured in fresh BHI broth at a dilution of 1:100 and grown at 37° C. Following 3 hours of culturing, S. aureus were harvested and washed for two to three times in cold PBS by centrifugation. […] The number of bacteria was determined by serial dilution and colony formation on BHI agar plates. […]
# as §2, with “ELISA assay was conducted according manufactures' instructions.” left out
# [4] = test system: NLRP3; experiment: NLRP3 expression in BMDC (qPCR, immunoblot); assay type: cell-based, mouse; conditions: 4 hours
# Experimental: as §1
# For detection of cleaved form of caspase-1, cell culture supernatants were precipitated by methanol-chloroform method. Briefly, supernatant was mixed with an equal volume of methanol and 0.25 volumes of chloroform, vortexed and centrifuge for 15 min at 20000 g. The upper phase was discarded and the interphase was mixed with methanol. After centrifugation for 5 min at 20000 g, the pellet was resuspended in 2×SDS-PAGE sample buffer and boiled for 5 min at 100° C. Protein samples were separated by 15% SDS-PAGE gels and were transferred onto PVDF membranes. […]
# Total RNA was extracted from cells using TRIzol Reagent (Invitrogen) and 1 μg total RNA was used for reverse transcription (Takara) according to manufactures' instructions. The cDNA was then used for quantitative RT-PCR to analyze relevant mRNA expression using Applied Biosystems StepOnePlus™ Real-Time PCR System and SYBR Premix Ex Taq kit (Takara) according to the manufacturer's instruction. The data were normalized to GAPDH and fold change in gene expression was calculated by comparative CT method (2^−ΔΔCT).
Structure (SMILES),IL-1β production/release in S. aureus infected BMDC [1],Th17 response / IL-17A production vs vehicle control [2],effect on S. aureus / adsA mutant-induced cell death [3],other results
C=C1[C@@H](C)[C@H]2[C@H](Cc3ccccc3)NC(=O)[C@]23[C@H](OC(C)=O)/C=C/[C@@](C)(O)C(=O)[C@@H](C)C/C=C/[C@H]3[C@@H]1O [Cytochalasin D],nearly suppressed IL-1β production,,,IL-1β production/release in S. aureus infected BMDC ([1]; listed as cytochalasin D): had little IL-1β production
CC(C)(O)c1coc(S(=O)(=O)NC(=O)Nc2c3c(cc4c2CCC4)CCC3)c1 [MCC950],largely dampen IL-1β production; also recorded: almost prevented the release of IL-1β; also recorded: had little IL-1β production,decreased IL-17A production,,
CCO[C@@H]1OC(=O)C[C@@H]1NC(=O)[C@@H]1CCCN1C(=O)[C@@H](NC(=O)c1ccc(N)c(Cl)c1)C(C)(C)C [VX765],,decreased IL-17A production,dramatically decrease adsA mutant-induced cell death,
COC(=O)C[C@H](NC(=O)[C@H](C)NC(=O)[C@@H](NC(=O)OCc1ccccc1)C(C)C)C(=O)CF [Z-VAD-FMK] (Cbz-Val-Ala-Asp(OMe)-CH2F),,,dramatically decrease adsA mutant-induced cell death,
Nc1nc(NCCc2ccc(O)cc2)nc2nc(-c3ccco3)nn12 [ZM241385],improved IL-1β production,,,
"Nc1ncnc2c1ncn2[C@@H]1O[C@H](CO)[C@@H](O)[C@H]1O [adenosine, Adenosine]",,,,"expression level of NLRP3 (qPCR) ([4]; BMDC activated by adsA mutant S. aureus or Pam3CSK4 / LPS (100 ng/ml), adenosine 100 μM): decreased the expression level of NLRP3; NLRP3 expression at protein level ([4]; BMDC pre-treated with a series of dose of adenosine, LPS 100 ng/ml): inhibited NLRP3 expression at protein level in a dose-dependent manner; inflammasome activation (IL-1β release and immunoblot) in BMDC infected with adsA mutant ([1]; pretreated with adenosine 100 μM): impaired inflammasome activation"
"Cn1c(=O)c2c(ncn2C)n(C)c1=O [caffeine, Caffeine]",,did not have any influence on Th17 immunity,,
"COc1nccnc1NS(=O)(=O)c1ccc(NC(=O)/C=C/c2ccc([N+](=O)[O-])s2)cc1 [necrosulfonamide, Necrosulfonamide]",,,did not have apparent effect on S. aureus induced cytotoxicity,

# Reference: US20230390373A1, “A LIVE STRAIN OF STAPHYLOCOCCUS AUREUS AND USES THEREOF” (priority 2020, published 2023)
